Common to all, as to assay type: cell-based
One test deals with HIV (LAV-I). In words: HIV in human PBMC, P24 levels by EIA. As for the experimental part:
While the previous example measured RT activity, the present example utilizes a direct quantitation of a viral protein (P24) as an indicator of antiviral effectiveness.
Peripheral blood mononuclear (PBM) cells were infected with HIV and treated with methylene blue as described above. The EC50 levels were calculated from enzyme immuno-assay (EIA) measurements of viral coat protein P24. The P24-specific EIA kit was purchased from Abbott Labs.

A further test relates to HSV-2 (G strain). In words: HSV plaque reduction assay in Vero cells, HSV-2. The note with it: Human alphaherpesvirus 2, Vero, light/dark not stated; read-out: Antiviral Effect: EC50 HSV-2. How it is done:
(§1) HSV Preparation: Confluent HEp-2 cells, in a roller bottle (Falcon, 850 cm^2), were infected at an input multiplicity of 0.01 PFU per cell (to minimize production of defective viruses). During the two-hour absorption period, the cells were exposed to the virus inoculum diluted in absorption buffer (10 ml PBS containing 1% newborn calf serum and 0.1% glucose). The virus inoculum was then removed and replaced with Hanks' Minimum Essential Medium (MEM) containing 2% inactivated newborn calf serum, penicillin (100 U/ml) and streptomycin (100 μg/ml) (P and S), sodium bicarbonate (2 g/L) and HEPES (25 mM) (maintenance medium). The infected cells were incubated at 37° C. for 3 to 4 days, until the cells could be easily shaken from the plastic surface of the culture bottles. The cells were then collected by centrifugation, suspended in a small volume of spent culture fluid (5 ml per 2×10^8 cells) and sonicated 3 times for one min on ice. The disrupted cells were centrifuged (2,000 g for 15 min at 4° C. and the supernatant was diluted with an equal volume of sterile skimmed milk (as stabilizer) and aliquots were frozen at −70° C.
(§2) HSV Plaque Reduction Assay: Near confluent Vero (African Green Monkey) cells in 6-well plates were infected with 100 μl virus diluted in absorption buffer to give 100-200 plaques per well. The plates were then incubated at 37° C. for 1 hour with intermittent rocking every 15 minutes. The inoculum was aspirated and the compounds at different concentrations (dissolved in maintenance medium) were added to replicate wells. For these assays, 0.1% pooled human gamma globulin was included in the media. The plates were placed in 5% CO2-95% air incubator and the plaques were allowed to develop for 48 h prior to fixation (buffered 10% Formalin acetate), staining (0.5% crystal violet in 20% EtOH/H2O) and enumeration. The degree of inhibition (percent plaques of control) was calculated by counting the mean plaque counts for the different drug dilutions. […] For routine antiviral drug screening, we used the F strain of HSV-1 and the G strain of HSV-2 (Ejercito, et al., “Characterization of Herpes Simplex virus Strains Differing in Their Effect on Social Behavior of Infected Cells,” J. Gen. Virol. 2, 357-364 (1968)). […] Acyclovir (ACV) was used as a positive control for the studies on HSV.
(§3) Median-Effect Method: EC50 and IC50 values were obtained by analysis of the data using the median-effect equation (Chou, T., et al., “Quantitative Analysis of Dose-Effect Relationships: The Combined Effects of Multiple Drugs or Enzyme Inhibitors,” Adv. Enz. Regul. 22, 27-55 (1984).

The test system of another test is HSV-1 (F strain). In words: HSV plaque reduction assay in Vero cells, HSV-1. The note with it: Human alphaherpesvirus 1, Vero, light/dark not stated; read-out: Antiviral Effect: EC50 HSV-1. As for the experimental part:
as §1, §2, §3

The next test concerns HIV-1 (strain LAV-1). In words: Inhibition of HIV-1 replication in human PBMC (supernatant RT activity). Conditions: Human immunodeficiency virus 1, PBMC; light/dark not stated; read-out: Antiviral Effect: EC50 HIV-1. As for the experimental part:
Cells: Human peripheral blood mononuclear cells (PBMC) from healthy HIV-1 seronegative and hepatitis B virus seronegative donors were isolated by Ficoll-Hypaque discontinuous gradient centrifugation at 1,000×g for 30 minutes, washed twice in phosphate-buffered saline (pH 7.2; PBS), and pelleted at 300×g for 10 minutes. Before infection, the cells were stimulated by phytohemagglutinin (PHA) at a concentration of 16.7 μg/ml, and 4 mM sodium bicarbonate buffer.
Retrovirus: HIV-1 (strain LAV-1) was obtained from Dr. P. Feorino (Centers for Disease Control, Atlanta, Ga.). The virus was propagated in human PBMC using RPMI 1640 medium, as described previously by McDougal, et al., (“Immunoassay for the detection and quantitation of infectious human retrovirus, lymphadenopathy-associated virus (LAV),” J. Immun. Meth. 76, 171-183, 1985) without PBA or fungizone and supplemented with 7% (v/v) interleukin-2 (Advanced Biotechnologies, Silver Spring, Md.), 7 μg/ml DEAE-dextran (Pharmacia, Uppsala, Sweden), and 370 U/ml anti-human leukocyte (alpha) interferon (ICN, Lisle, Ill.). Virus obtained from cell-free culture supernatant was titrated and stored in aliquots at −70° C. until use.
Inhibition of Virus Replication in Human PBMC: Uninfected PHA-stimulated human PBMC were uniformly distributed among 25 cm^2 flasks to give a 5 ml suspension containing about 2×10^6 cells/ml. Suitable dilutions of virus were added to infect the cultures. The mean reverse transcriptase (RT) activity of the inocula was 50,000 dpm/ml corresponding to about 100 TCID50, as determined by Groopman, et al., (1987), “Characterization of Serum Neutralization Response to the Human Immunodeficiency Virus (HIV),” AIDS Res. Human Retro. 3, 71-85. The drugs, at twice their final concentrations in 5 ml of RPMI 1640 medium (supplemented as described above), were added to the cultures. Uninfected and untreated PBMC at equivalent cell densities were grown in parallel as controls. The cultures were maintained in a humidified 5% CO2-95% air incubator at 37° C. for six days after infection at which point all cultures were sampled for supernatant RT activity.
RT Activity Assay: A […] aliquot of supernatant from each culture was clarified of cells at 300×g for 10 minutes. […]
The RT assay was performed in 96-well microtiter plates, as described by Spira, et al. (1987), “Micromethod for Assaying the Reverse Transcriptase of LAV-HTLV-III/Lymphadenopathy-Associated Virus,” J. Clin. Microbiol. […] Four ml of scintillation fluid (Econofluor, NEN Research Products, Boston, Mass.) were added and the amount of radioactivity in each sample was determined using a Packard Tri-Carb liquid scintillation analyzer (model 2,000CA). […]

One compound from patent US6346529B1, “Antiviral therapy using thiazine dyes” (Oklahoma Medical Research Foundation, priority 1988, dated 2002) can be followed below.

In the case of `Cc1cn([C@H]2C[C@H](N=[N+]=[N-])[C@@H](CO)O2)c(=O)[nH]c1=O` [AZT, 3′-azido-3′-deoxythymidine], the “ng P24/ml” value in the test on HIV (LAV-I) (0.0001 μM) amounted to 360.7 ng P24/ml; in the test on HIV (LAV-I) (0.001 μM) it was 266.2 ng P24/ml; in the test with HIV (LAV-I) (0.01 μM) it was 36.1 ng P24/ml; in the test on HIV (LAV-I) (0.1 μM), 5.2 ng P24/ml. Further, the inhibition at 0.0001 µM in the test with HIV (LAV-I) (Human immunodeficiency virus 1, PBMC, 0.0001 μM, read-out: % Inhibition (corrected)) is -0.5%. The inhibition at 0.001 µM in the test with HIV (LAV-I) (Human immunodeficiency virus 1, PBMC, 0.001 μM, read-out: % Inhibition (corrected)) worked out at 25.8%. Besides, in the test on HIV (LAV-I) (Human immunodeficiency virus 1, PBMC, 0.01 μM, read-out: % Inhibition (corrected)), the inhibition at 0.01 µM is 89.9%. Moreover, the inhibition at 0.1 µM with HIV (LAV-I) (Human immunodeficiency virus 1, PBMC, 0.1 μM, read-out: % Inhibition (corrected)) was determined as 98.5%. In addition, the 50% effective concentration (EC50) in the test with HIV (LAV-I) (Human immunodeficiency virus 1, PBMC, light/dark not stated, read-out: EC50 (P24)) is 6.4 nM; with HSV-2 (G strain), > 100000 nM; in the test on HSV-1 (F strain), > 100000 nM; in the test with HIV-1 (strain LAV-1) it was 0.22 nM.
